# Measurements from US20250026752A1, “POSITIVE ALLOSTERIC MODULATORS OF THE MUSCARINIC ACETYLCHOLINE RECEPTOR M4” (Vanderbilt University, priority 2021, published 2025).
# Target: T1, human mAChR M4 (Homo sapiens, UniProt P08173)
# T1 construct: expressed in transfected cells; host or cells: CHO-K1 (ATCC), stably expressing hM4 and Gqi5
# T1 sequence (P08173 1-479): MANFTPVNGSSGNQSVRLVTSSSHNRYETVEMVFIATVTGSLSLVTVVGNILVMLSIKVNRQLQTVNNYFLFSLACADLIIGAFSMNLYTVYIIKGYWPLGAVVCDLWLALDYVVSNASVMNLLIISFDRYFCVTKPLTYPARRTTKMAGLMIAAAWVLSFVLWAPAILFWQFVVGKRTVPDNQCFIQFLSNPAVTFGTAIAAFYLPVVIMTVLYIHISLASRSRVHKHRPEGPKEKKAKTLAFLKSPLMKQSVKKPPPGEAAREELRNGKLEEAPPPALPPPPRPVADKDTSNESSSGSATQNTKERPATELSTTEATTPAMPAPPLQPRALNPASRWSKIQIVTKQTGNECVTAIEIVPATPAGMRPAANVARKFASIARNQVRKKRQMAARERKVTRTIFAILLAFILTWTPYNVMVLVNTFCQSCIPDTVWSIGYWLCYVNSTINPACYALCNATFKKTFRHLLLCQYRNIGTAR
# Assay: mAChR M4 cell-based functional assay: calcium flux (Fluo-4, FDSS), positive allosteric modulator activity on the EC20 acetylcholine response, hM4-Gqi5 CHO-K1 cells
# Conditions: for Emax at 30 µM: CHO-K1, human M4, % ACh maximum at 30 μM; for EC50: human M4, PAM activity on EC20 acetylcholine response, calcium flux, read-out: Human M4 EC50
# Outline: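 CHO-K1 cells stably expressing human M4 with chimeric Gqi5, loaded with Fluo-4 AM for 50 min at 37° C. Compounds (11-point, 1:3 dilutions) added first, then an acetylcholine EC20 at 144 s; calcium read on FDSS at 1 Hz. EC50 is the half-maximal increase above the EC20 baseline, four-parameter logistic fit.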
Emax at 30 µM [%],EC50 [nM],SMILES
82,650,"Cc1nc(N2CCc3ncc(N4CCN(C)C(=O)C4)cc3C2)c2cc(Cl)ccc2n1 [Compound 274, 4-(6-(6-chloro-2-methylquinazolin-4-yl)-5,6,7,8-tetrahydro-1,6-naphthyridin-3-yl)-1-methylpiperazin-2-one]"
73,2240,"Fc1ccc2ncnc(N3CCc4ncc(N5CCCn6ccnc65)cc4C3)c2c1 [Compound 275, 4-(3-(6,7-dihydroimidazo[1,2-a]pyrimidin-8(5H)-yl)-7,8-dihydro-1,6-naphthyridin-6(5H)-yl)-6-fluoroquinazoline]"
96,320,"Fc1ccc2ncnc(N3CCc4ncc(N5CCCn6nc(C(F)(F)F)cc65)cc4C3)c2c1 [Compound 276, 6-fluoro-4-(3-(2-(trifluoromethyl)-6,7-dihydropyrazolo[1,5-a]pyrimidin-4(5H)-yl)-7,8-dihydro-1,6-naphthyridin-6(5H)-yl)quinazoline]"
72,810,"CC(C)(C)c1cc2n(n1)CCCN2c1cnc2c(c1)CN(c1ncnc3ccc(F)cc13)CC2 [Compound 279, 4-(3-(2-(tert-butyl)-6,7-dihydropyrazolo[1,5-a]pyrimidin-4(5H)-yl)-7,8-dihydro-1,6-naphthyridin-6(5H)-yl)-6-fluoroquinazoline]"
99,700,"CN1CCN(c2cnc3c(c2)CN(c2ncnc4ccc(F)cc24)CC3)CC12COC2 [Compound 283, 8-(6-(6-fluoroquinazolin-4-yl)-5,6,7,8-tetrahydro-1,6-naphthyridin-3-yl)-5-methyl-2-oxa-5,8-diazaspiro[3.5]nonane]"
104,500,"CN1CCN(c2cnc3c(c2)CN(c2ncnc4cc(F)c(F)cc24)CC3)CC12COC2 [Compound 284, 8-(6-(6,7-difluoroquinazolin-4-yl)-5,6,7,8-tetrahydro-1,6-naphthyridin-3-yl)-5-methyl-2-oxa-5,8-diazaspiro[3.5]nonane]"
98,580,"Cc1nc(N2CCc3ncc(N4CCN(C)C5(COC5)C4)cc3C2)c2cc(Cl)ccc2n1 [Compound 285, 8-(6-(6-chloro-2-methylquinazolin-4-yl)-5,6,7,8-tetrahydro-1,6-naphthyridin-3-yl)-5-methyl-2-oxa-5,8-diazaspiro[3.5]nonane]"
85,360,"Cc1nc(N2CCc3ncc(CC(F)(F)F)cc3C2)c2cc(Cl)ccc2n1 [Compound 287, 6-chloro-2-methyl-4-(3-(2,2,2-trifluoroethyl)-7,8-dihydro-1,6-naphthyridin-6(5H)-yl)quinazoline]"
97,400,"Cc1nc(N2CCc3ncc(C(C)(O)C(F)(F)F)cc3C2)c2cc(Cl)ccc2n1 (stereo not shown) [Compound 291, 2-(6-(6-chloro-2-methylquinazolin-4-yl)-5,6,7,8-tetrahydro-1,6-naphthyridin-3-yl)-1,1,1-trifluoropropan-2-ol]"
68,1630,"Cc1nc(N2CCc3ncc(-c4ccccc4C)cc3C2)c2cc(F)ccc2n1 [Compound 294, 6-fluoro-2-methyl-4-(3-(o-tolyl)-7,8-dihydro-1,6-naphthyridin-6(5H)-yl)quinazoline]"
85,2630,"Cc1nc(N2CCc3ncc(-c4cc(F)ccc4C)cc3C2)c2cc(F)ccc2n1 [Compound 295, 6-fluoro-4-(3-(5-fluoro-2-methylphenyl)-7,8-dihydro-1,6-naphthyridin-6(5H)-yl)-2-methylquinazoline]"
96,3600,"Cc1ccccc1-c1cnc2c(c1)CN(c1ncnc3ccc(Cl)cc13)CC2 [Compound 300, 6-chloro-4-(3-(o-tolyl)-7,8-dihydro-1,6-naphthyridin-6(5H)-yl)quinazoline]"
94,3060,"Cc1ccc(F)cc1-c1cnc2c(c1)CN(c1ncnc3ccc(Cl)cc13)CC2 [Compound 301, 6-chloro-4-(3-(5-fluoro-2-methylphenyl)-7,8-dihydro-1,6-naphthyridin-6(5H)-yl)quinazoline]"
94,5370,"Cc1nc(N2CCc3ncc(-c4ccccc4C)cc3C2)c2cc(Cl)ccc2n1 [Compound 302, 6-chloro-2-methyl-4-(3-(o-tolyl)-7,8-dihydro-1,6-naphthyridin-6(5H)-yl)quinazoline]"

# Further lines, the compound ahead of its results:
SMILES,Emax at 30 µM [%],EC50 [nM]
"Fc1cc2ncnc(N3CCc4ncc(N5CCCn6ccnc65)cc4C3)c2cc1F [Compound 277, 4-(3-(6,7-dihydroimidazo[1,2-a]pyrimidin-8(5H)-yl)-7,8-dihydro-1,6-naphthyridin-6(5H)-yl)-6,7-difluoroquinazoline]",67,2630
"Fc1cc2ncnc(N3CCc4ncc(N5CCCn6nc(C(F)(F)F)cc65)cc4C3)c2cc1F [Compound 278, 6,7-difluoro-4-(3-(2-(trifluoromethyl)-6,7-dihydropyrazolo[1,5-a]pyrimidin-4(5H)-yl)-7,8-dihydro-1,6-naphthyridin-6(5H)-yl)quinazoline]",76,410
"Fc1ccc2ncnc(N3CCc4ncc(N5CCCn6nc(C7CC7)cc65)cc4C3)c2c1 [Compound 280, 4-(3-(2-cyclopropyl-6,7-dihydropyrazolo[1,5-a]pyrimidin-4(5H)-yl)-7,8-dihydro-1,6-naphthyridin-6(5H)-yl)-6-fluoroquinazoline]",90,390
"[2H]C1([2H])N(c2cnc3c(c2)CN(c2ncnc4ccc(F)cc24)CC3)c2ccnn2C([2H])([2H])C1([2H])[2H] [Compound 281, 4-(3-(6,7-dihydropyrazolo[1,5-a]pyrimidin-4(5H)-yl-5,5,6,6,7,7-d6)-7,8-dihydro-1,6-naphthyridin-6(5H)-yl)-6-fluoroquinazoline]",104,30
"[2H]C1([2H])N(c2cnc3c(c2)CN(c2ncnc4cc(F)c(F)cc24)CC3)c2ccnn2C([2H])([2H])C1([2H])[2H] [Compound 282, 4-(3-(6,7-dihydropyrazolo[1,5-a]pyrimidin-4(5H)-yl-5,5,6,6,7,7-d6)-7,8-dihydro-1,6-naphthyridin-6(5H)-yl)-6,7-difluoroquinazoline]",111,30
"Fc1cc2ncnc(N3CCc4ncc(CC(F)(F)F)cc4C3)c2cc1F [Compound 286, 6,7-difluoro-4-(3-(2,2,2-trifluoroethyl)-7,8-dihydro-1,6-naphthyridin-6(5H)-yl)quinazoline]",97,170
"C[C@@H]1CCN(c2cnc3c(c2)CN(c2ncnc4ccc(F)cc24)CC3)c2ccnn21 [Compound 288, (R)-6-fluoro-4-(3-(7-methyl-6,7-dihydropyrazolo[1,5-a]pyrimidin-4(5H)-yl)-7,8-dihydro-1,6-naphthyridin-6(5H)-yl)quinazoline]",75,40
"C[C@H]1CCN(c2cnc3c(c2)CN(c2ncnc4ccc(F)cc24)CC3)c2ccnn21 [Compound 289, (S)-6-fluoro-4-(3-(7-methyl-6,7-dihydropyrazolo[1,5-a]pyrimidin-4(5H)-yl)-7,8-dihydro-1,6-naphthyridin-6(5H)-yl)quinazoline]",72,490
"CC(O)(c1cnc2c(c1)CN(c1ncnc3cc(F)c(F)cc13)CC2)C(F)(F)F (stereo not shown) [Compound 290, 2-(6-(6,7-difluoroquinazolin-4-yl)-5,6,7,8-tetrahydro-1,6-naphthyridin-3-yl)-1,1,1-trifluoropropan-2-ol]",91,200
"Cc1ccccc1-c1cnc2c(c1)CN(c1ncnc3ccc(F)cc13)CC2 [Compound 292, 6-fluoro-4-(3-(o-tolyl)-7,8-dihydro-1,6-naphthyridin-6(5H)-yl)quinazoline]",79,660
"Cc1ccc(F)cc1-c1cnc2c(c1)CN(c1ncnc3ccc(F)cc13)CC2 [Compound 293, 6-fluoro-4-(3-(5-fluoro-2-methylphenyl)-7,8-dihydro-1,6-naphthyridin-6(5H)-yl)quinazoline]",80,740
"COc1ccc2ncnc(N3CCc4ncc(-c5ccccc5C)cc4C3)c2c1 [Compound 296, 6-methoxy-4-(3-(o-tolyl)-7,8-dihydro-1,6-naphthyridin-6(5H)-yl)quinazoline]",102,1370
"COc1ccc2ncnc(N3CCc4ncc(-c5cc(F)ccc5C)cc4C3)c2c1 [Compound 297, 4-(3-(5-fluoro-2-methylphenyl)-7,8-dihydro-1,6-naphthyridin-6(5H)-yl)-6-methoxyquinazoline]",101,1550
"Cc1ccc2ncnc(N3CCc4ncc(-c5ccccc5C)cc4C3)c2c1 [Compound 298, 6-methyl-4-(3-(o-tolyl)-7,8-dihydro-1,6-naphthyridin-6(5H)-yl)quinazoline]",100,1300
"Cc1ccc2ncnc(N3CCc4ncc(-c5cc(F)ccc5C)cc4C3)c2c1 [Compound 299, 4-(3-(5-fluoro-2-methylphenyl)-7,8-dihydro-1,6-naphthyridin-6(5H)-yl)-6-methylquinazoline]",94,1200
